In patent publication US11167012B2, “Peptide inhibition of CCR3-mediated diseases or conditions” (The Board of Trustees of the University of Illinois, priority 2015, dated 2021):
Where a SMILES comes first, the peptide text is derived from it. The star is where a group is joined. X1 = NC(=O)CCOCCOCCOCCOCCOCCOCCOCCOCCOCCOCCOCCOCCOCCOCCOCCOCCOCCOCCOCCOCCOCCOCCOCCOCCOCCOCCOCCOCCN*

Columns and labels:
CCR3 [1] = target: T1, CCR3 (Homo sapiens, UniProt P51677); assay: CCR3 surface expression and internalization by flow cytometry, AML14.3D10-CCR3 cells; type: cell-based; parameters: host or cells: AML14.3D10-CCR3 (eosinophilic myelocytic cell line, kept under G418)
T1 sequence (P51677 1-355): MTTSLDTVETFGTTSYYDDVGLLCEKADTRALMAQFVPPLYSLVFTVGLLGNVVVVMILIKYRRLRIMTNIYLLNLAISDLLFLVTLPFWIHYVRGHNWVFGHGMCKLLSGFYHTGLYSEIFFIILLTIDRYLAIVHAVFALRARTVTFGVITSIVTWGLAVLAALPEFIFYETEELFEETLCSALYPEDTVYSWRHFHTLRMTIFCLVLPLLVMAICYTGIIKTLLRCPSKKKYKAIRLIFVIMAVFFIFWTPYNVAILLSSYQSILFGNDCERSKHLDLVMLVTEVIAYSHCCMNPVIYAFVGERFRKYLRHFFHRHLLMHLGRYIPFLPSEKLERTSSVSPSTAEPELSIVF
Method: Error bars represent SEM. *p<0.05, compared to untreated cells; n=3.
To assess surface expression of CCR3, cells were stained using PE-conjugated anti-human CCR3 antibody (clone 5E8, BioLegend) or PE-conjugated isotype-matched control after blocking with 10% human AB serum. To determine ligand-induced CCR3 internalization, cells were incubated with various chemokines for 1 hour at 37° C., washed once in staining buffer (PBS+0.5% BSA+0.1% NaN3) before being stained as above. After antibody staining, cells were fixed in 2% paraformaldehyde and analyzed on a QUANTA SC flow cytometer (Beckman Coulter, Indianapolis, Ind.).

CCR3 [2] = target: T1, CCR3; assay: CCR3 degradation in cycloheximide-treated AML14.3D10-CCR3 cells, immunoblot; type: cell-based; parameters: host or cells: AML14.3D10-CCR3 (eosinophilic myelocytic cell line, kept under G418); settings: 10 μM, 8 nM eotaxin or RANTES for 3 hours
Method: AML14.3D10-CCR3 cells were resuspended in RPMI-1640+0.1% BSA. Aliquots of 1×10^6 cells were pretreated with 10 μM cycloheximide for 1 hour at 37° C. Some cells were concurrently pretreated with 10 μM R3-2-1, 10 μM MG132, or both for 30 minutes. Pretreated cells were stimulated with 8 nM eotaxin or RANTES for 3 hours to induce receptor degradation. An aliquot of untreated cells were reserved at the start of the experiment to establish baseline CCR3 expression. All cells were then lysed in RIPA buffer and immunoblotted for CCR3 with a polyclonal rabbit anti-CCR3 antibody (Abcam) followed by goat anti-rabbit IgG-HRP secondary antibody (Santa Cruz).

Gαi = Gαi activation, pull-down of GTP-bound Gαi in AML14.3D10-CCR3 cells; type: cell-based, human; settings: 10 μM, 8 nM CCL11
Method: GTP-bound Gal was detected using a commercial Gαi assay kit (Abcam, Cambridge, Mass.) with modifications. Briefly, AML14.3D10-CCR3 cells were serum-starved for 16 hours before being pretreated with […] pertussis toxin for 2 hours, 10 μM R3-2-1 for 30 minutes, or with vehicle control. Pretreated cells were then stimulated with 8 nM CCL11 or medium for 1 minute. The reaction was stopped by adding ice cold PBS. Ten (10) million cells were used for each condition. Washed cells were lysed with 1× lysis buffer following manufacturer instructions. For pull-down of active Gαi, mouse anti-GTP bound Gαi antibody was conjugated to DYNABEADS Protein G (Life Technologies, Carlsbad, Calif.) for 15 minutes at room temperature. Conjugated beads were washed 3 times with Tris-buffered saline+TWEEN® polysorbate (TBST) and incubated with cell lysates for 20 minutes at room temperature. After washing with TBST, bound proteins were eluted by boiling the beads in 2×SDS buffer for 5 minutes. Eluates were resolved by SDS-PAGE and immunoblotted using a polyclonal rabbit anti-total Gαi antibody (Cell Signaling Technology).

CC[C@H](C)[C@H](NC(=O)[C@H](Cc1c[nH]c2ccccc12)NC(=O)[C@H](Cc1ccccc1)NC(=O)[C@@H]1CCCN1C(=O)[C@H](CC(C)C)NC(=O)[C@@H](NC(=O)[C@@H](NC(=O)[C@H](CC(C)C)NC(=O)[C@H](Cc1ccccc1)NC(=O)[C@H](CC(C)C)NC(=O)[C@@H](N)CC(C)C)C(C)C)[C@@H](C)O)C(=O)N[C@@H](Cc1c[nH]cn1)C(=O)N[C@@H](Cc1ccc(O)cc1)C(=O)N[C@H](C(=O)N[C@@H](CCCNC(=N)N)C(=O)NCC(=O)N[C@@H](Cc1c[nH]cn1)C(=O)N[C@@H](CC(N)=O)C(=O)N[C@@H](Cc1c[nH]c2ccccc12)C(=O)N[C@H](C(=O)N[C@@H](Cc1ccccc1)C(=O)NCC(=O)N[C@@H](Cc1c[nH]cn1)C(=O)N[C@@H](CC(=O)O)C(=O)N[C@@H](CC(=O)O)C(=O)N[C@@H](CC(=O)O)C(=O)NCCOCCOCCOCCOCCOCCOCCOCCOCCOCCOCCOCCOCCOCCOCCOCCOCCOCCOCCOCCOCCOCCOCCOCCOCCOCCOCCOCCOCCC(N)=O)C(C)C)C(C)C [Peptide R3-2-1] (H-LLFLVTLPFWIHYVRGHNWVFGHDDD-X1; N-terminus assumed)
CCR3 internalization or surface accumulation on prolonged treatment (CCR3 [1]; 1 μM for 24, 48 or 72 hour, with or without CCL11 (12 nM)): promotes CCR3 internalization
CCL11-induced receptor internalization (CCR3 [1]; 1 μM, added concurrently with 12 nM CCL11): neither R3-2-1 (1 μM) nor R3-2-3 (1 μM) interfere with CCL11-induced receptor internalization
CCL11-induced CCR3 endocytosis (CCR3 [1]; 2 or 10 μM): does not inhibit CCL11-induced CCR3 endocytosis
surface CCR3 expression in the absence of CCR3 ligand (CCR3 [1]; AML14.3D10-CCR3 cells, significant at 1 μM): significantly decreases surface CCR3 expression
CCR3 degradation induced by eotaxin and RANTES (CCR3 [2]): enhanced CCR3 degradation induced by eotaxin and RANTES
activation of Gαi (GTP-bound form) (Gαi): inhibit the activation of Gαi
